Measurements taken from PubChem BioAssay AID330 (DTP/NCI, 2004).
Several values for one entry are separate records, joined by “and”; a condition that tells them apart may be missing. Identical values can stand only once. Toxic doses and inconclusive results are not listed. Rule for the calls: active = survival T/C of 150% or more; inactive = T/C below 125% in these data.

Tested on: P388 leukemia ip, CD2F1 mice, survival T/C
Test: NCI In Vivo Anticancer Drug Screen. Data for tumor model P388 Leukemia (intraperitoneal) in CD2F1 (CDF1) mice
Conditions: endpoint: median survival time, higher = longer survival
Method in brief: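 Mice carrying the transplanted tumor received test compound or vehicle. Survival was recorded in each group, and the value is the treated-group measurement divided by that of the vehicle-treated control group.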

[1] = dose: 12.5 mg/kg/injection, schedule: Q01DX009 (ip), vehicle: other
[2] = dose: 25.0 mg/kg/injection, schedule: Q01DX009 (ip), vehicle: other
[3] = dose: 100.0 mg/kg/injection, schedule: Q01DX009 (ip), vehicle: other
[4] = dose: 100.0 mg/kg/injection, schedule: Q04DX002 (ip), vehicle: saline with Tween-80
[5] = dose: 200.0 mg/kg/injection, schedule: Q04DX002 (ip), vehicle: saline with Tween-80
[6] = dose: 400.0 mg/kg/injection, schedule: Q04DX002 (ip), vehicle: saline with Tween-80
[7] = dose: 60.0 mg/kg/injection, schedule: Q01DX005 (ip), vehicle: saline with Tween-80
[8] = dose: 120.0 mg/kg/injection, schedule: Q01DX005 (ip), vehicle: saline with Tween-80
[9] = dose: 25.0 mg/kg/injection, schedule: Q01DX009 (ip), vehicle: Klucel (hydroxypropylcellulose) (HPC)
[10] = dose: 100.0 mg/kg/injection, schedule: Q01DX009 (ip), vehicle: Klucel (hydroxypropylcellulose) (HPC)
[11] = dose: 200.0 mg/kg/injection, schedule: Q01DX009 (ip), vehicle: Klucel (hydroxypropylcellulose) (HPC)
[12] = dose: 400.0 mg/kg/injection, schedule: Q01DX009 (ip), vehicle: Klucel (hydroxypropylcellulose) (HPC)
[13] = dose: 50.0 mg/kg/injection, schedule: Q01DX009 (ip), vehicle: saline
[14] = dose: 100.0 mg/kg/injection, schedule: Q01DX009 (ip), vehicle: saline
[15] = dose: 6.25 mg/kg/injection, schedule: Q01DX009 (ip), vehicle: saline with Tween-80
[16] = dose: 12.5 mg/kg/injection, schedule: Q01DX009 (ip), vehicle: saline with Tween-80
[17] = dose: 25.0 mg/kg/injection, schedule: Q01DX009 (ip), vehicle: saline with Tween-80
[18] = dose: 50.0 mg/kg/injection, schedule: Q01DX005 (ip), vehicle: saline with Tween-80
[19] = dose: 100.0 mg/kg/injection, schedule: Q01DX005 (ip), vehicle: saline with Tween-80
[20] = dose: 200.0 mg/kg/injection, schedule: Q01DX005 (ip), vehicle: saline with Tween-80
[21] = dose: 50.0 mg/kg/injection, schedule: Q01DX009 (ip), vehicle: Klucel (hydroxypropylcellulose) (HPC)
[22] = dose: 50.0 mg/kg/injection, schedule: Q01DX009 (ip), vehicle: saline with Tween-80
[23] = dose: 200.0 mg/kg/injection, schedule: Q01DX009 (ip), vehicle: saline with Tween-80
[24] = dose: 100.0 mg/kg/injection, schedule: Q01DX009 (ip), vehicle: saline with Tween-80
[25] = dose: 50.0 mg/kg/injection, schedule: Q01DX005 (ip), vehicle: Klucel (hydroxypropylcellulose) (HPC)
[26] = dose: 100.0 mg/kg/injection, schedule: Q01DX005 (ip), vehicle: Klucel (hydroxypropylcellulose) (HPC)

Measured: T/C

CC(=O)OCC1OC(OC(C)=O)C(NC(=O)CN(Cc2ccccc2)S(C)(=O)=O)C(OC(C)=O)C1OC(C)=O (stereo unspecified)
inactive: [1] 91 % of control | [2] 99 % of control | dose: 50.0 mg/kg/injection, schedule: Q01DX009 (ip), vehicle: other 96 % of control | [3] 93 % of control | dose: 200.0 mg/kg/injection, schedule: Q01DX009 (ip), vehicle: other 105 % of control

COc1cccc(-c2nnc(-c3nc[nH]c3C)[nH]c2=O)c1
inactive: [4] 93 % of control | [5] 91 % of control | [6] 91 % of control

NC(=S)NN=C1/C(=N\O)CCC/C1=N/O
inactive: [7] 97 % of control | [8] 97 % of control | dose: 240.0 mg/kg/injection, schedule: Q01DX005 (ip), vehicle: saline with Tween-80 97 % of control

Cc1c(NC(=O)Nc2cc([N+](=O)[O-])ccc2Cl)c(=O)n(-c2ccccc2)n1C
inactive: [7] 94 % of control | [8] 86 % of control

CC(C)(C)c1cc(/C2=c3\cc/c([n-]3)=C(\c3cc(C(C)(C)C)c(O)c(C(C)(C)C)c3)c3ccc([n-]3)/C(c3cc(C(C)(C)C)c(O)c(C(C)(C)C)c3)=c3/cc/c([n-]3)=C(\c3cc(C(C)(C)C)c(O)c(C(C)(C)C)c3)c3ccc2[n-]3)cc(C(C)(C)C)c1O.[Zn]
inactive: [4] 97 % of control | [5] 88 % of control | [6] 90 % of control

CCCCCCCCCCCC[N+](C)(C)C (tested in a mixture with another compound)
inactive: dose: 6.25 mg/kg/injection, schedule: Q01DX009 (ip), vehicle: Klucel (hydroxypropylcellulose) (HPC) 113 % of control | dose: 12.5 mg/kg/injection, schedule: Q01DX009 (ip), vehicle: Klucel (hydroxypropylcellulose) (HPC) 114 % of control | [9] 114 % of control

ICC1(CI)COC1
inactive: [10] 105 % of control | [11] 104 % of control | [12] 99 % of control

CC1CN1C(=O)Nc1cccc(Cl)c1 (stereo unspecified)
inactive: [13] 100 % of control | [14] 102 % of control

CCOC(=O)C(Br)(C(=O)OCC)C(C)C
inactive: [13] 111 % of control | [14] 109 % of control | dose: 200.0 mg/kg/injection, schedule: Q01DX009 (ip), vehicle: saline 120 % of control

Cc1cc(N(CCO)CCO)c(OCc2ccccc2)c(N(CCO)CCO)c1
inactive: dose: 60.0 mg/kg/injection, schedule: Q01DX005 (ip), vehicle: Klucel (hydroxypropylcellulose) (HPC) 99 % of control | dose: 120.0 mg/kg/injection, schedule: Q01DX005 (ip), vehicle: Klucel (hydroxypropylcellulose) (HPC) 100 % of control | dose: 240.0 mg/kg/injection, schedule: Q01DX005 (ip), vehicle: Klucel (hydroxypropylcellulose) (HPC) 98 % of control

Cc1c2oc3c(C)ccc(C(=O)OCCN4CCOCC4)c3nc-2c(C(=O)OCCN2CCOCC2)c(N)c1=O
inactive: dose: 3.13 mg/kg/injection, schedule: Q01DX009 (ip), vehicle: saline with Tween-80 112 % of control | [15] 110 % of control | [16] 119 % of control | [17] 111 % of control

O=S(=O)(Nc1nccs1)c1ccc(Nc2c3ccc(Cl)cc3nc3ncccc23)cc1
inactive: [18] 105 % of control | [19] 102 % of control | [20] 98 % of control

Cc1cc(C)c(S(=O)(=O)N/N=C/C(=O)O)c(C)c1
inactive: [1] 112 % of control and 117 % of control | [2] 122 % of control
active: [3] 154 % of control

O=C(c1ccccc1)c1ccc[n+](Cc2ccccc2)c1
inactive: dose: 25.0 mg/kg/injection, schedule: Q01DX005 (ip), vehicle: saline 100 % of control | dose: 50.0 mg/kg/injection, schedule: Q01DX005 (ip), vehicle: saline 111 % of control | dose: 100.0 mg/kg/injection, schedule: Q01DX005 (ip), vehicle: saline 109 % of control

Cc1ccc(S(=O)(=O)N2CC3CC(C2)C(=O)NC3=O)cc1
inactive: [21] 104 % of control | [10] 107 % of control | [11] 92 % of control

Nc1ccc([N+](=O)[O-])cc1C(=O)NCCc1ccncc1
inactive: [18] 95 % of control | [19] 97 % of control | [20] 99 % of control

CCCCCCCCCCCCCCCCS.[Ge]
inactive: [16] 106 % of control | [17] 98 % of control | [22] 104 % of control

CCCC(C)(O)/C(C)=N/O (stereo unspecified)
inactive: [16] 98 % of control | [17] 101 % of control | [22] 104 % of control and 87 % of control | [23] 90 % of control

Cc1ccc(NC(=O)C#N)cc1
inactive: dose: 15.0 mg/kg/injection, schedule: Q01DX005 (ip), vehicle: saline with Tween-80 107 % of control | dose: 30.0 mg/kg/injection, schedule: Q01DX005 (ip), vehicle: saline with Tween-80 96 % of control

O=C(NC(=S)Nc1ccsc1)c1ccccc1
inactive: [22] 90 % of control | [24] 88 % of control

O=C1C(=O)c2c(ccc3ccccc23)-c2ccccc21
inactive: [25] 100 % of control | [21] 104 % of control | [26] 97 % of control | [10] 100 % of control | dose: 200.0 mg/kg/injection, schedule: Q01DX005 (ip), vehicle: Klucel (hydroxypropylcellulose) (HPC) 104 % of control | [11] 86 % of control | [12] 94 % of control

CCC/C(=N\NC(=S)N(C)C)c1ccccn1
inactive: dose: 12.5 mg/kg/injection, schedule: Q01DX005 (ip), vehicle: saline with Tween-80 103 % of control | dose: 25.0 mg/kg/injection, schedule: Q01DX005 (ip), vehicle: saline with Tween-80 107 % of control | [18] 115 % of control and 117 % of control

N#C[S-].N#C[S-].N#C[S-].N#C[S-].[Cr+6].[NH2-].[NH2-]
inactive: dose: 25.0 mg/kg/injection, schedule: Q04DX003 (ip), vehicle: saline 103 % of control | dose: 50.0 mg/kg/injection, schedule: Q04DX003 (ip), vehicle: saline 95 % of control

O=C(OCC1OC(n2cc(C(F)(F)F)c(=O)[nH]c2=O)CC1OC(=O)c1ccc([N+](=O)[O-])cc1)c1ccc([N+](=O)[O-])cc1 (stereo unspecified)
inactive: dose: 12.0 mg/kg/injection, schedule: Q01DX005 (ip), vehicle: Klucel (hydroxypropylcellulose) (HPC) 100 % of control | dose: 25.0 mg/kg/injection, schedule: Q01DX005 (ip), vehicle: Klucel (hydroxypropylcellulose) (HPC) 108 % of control | [25] 105 % of control and 108 % of control | [26] 107 % of control

CCCNCCC(O)c1cc(C(F)(F)F)nc2c(C(F)(F)F)cccc12 (stereo unspecified)
inactive: [17] 102 % of control | [22] 110 % of control | [24] 109 % of control

O=CNC(Cc1ccccc1N(CCCl)CCCl)C(=O)O (stereo unspecified)
inactive: dose: 40.0 mg/kg/injection, schedule: Q04DX003 (ip), vehicle: water 113 % of control
active: dose: 5.0 mg/kg/injection, schedule: Q04DX003 (ip), vehicle: other 198 % of control | dose: 5.0 mg/kg/injection, schedule: Q04DX003 (ip), vehicle: water 154 % of control | dose: 10.0 mg/kg/injection, schedule: Q04DX003 (ip), vehicle: other 261 % of control | dose: 10.0 mg/kg/injection, schedule: Q04DX003 (ip), vehicle: water 187 % of control | dose: 20.0 mg/kg/injection, schedule: Q04DX003 (ip), vehicle: other 293 % of control | dose: 20.0 mg/kg/injection, schedule: Q04DX003 (ip), vehicle: water 309 % of control

CN(C)c1ccc(C=C2C(=O)CC(C)(C)CC2=O)cc1
inactive: [9] 106 % of control | [21] 97 % of control | [10] 92 % of control | [11] 93 % of control

Nc1cc(=O)[nH]c(N)n1
inactive: [15] 106 % of control | [16] 106 % of control | [17] 106 % of control | [22] 104 % of control and 108 % of control | [24] 107 % of control | [23] 104 % of control
